≈ marks a conversion by molar mass, not a printed value. Like-named read-outs stand apart in the source and are kept apart here.
What was measured:
Type in all cases: cell-based
[1] = tested on: Sclerotinia sclerotiorum (sensitive, wild-type); assay: Activity against Sclerotinia sclerotiorum in tissue culture plate assay with mycelial plugs, wild type; settings: 168 h, % growth after 7 days at 18° C., read-out: Absolute IC50, wild type
Procedure: Fungal strains used: • a) Sclerotinia sclerotiorum (sensitive, wild-type) • b) Mutants of Sclerotinia sclerotiorum
Pure cultures are grown on DOB-agar medium, (3.4 g/l YNB (Becton Dickinson), 10 g/l Ammoniumsulfat, 40 g/l Glucose) for 5-7 days at 18° C. Mycelial plugs (6 mm diame-ter) taken from the margin of the colonies are used as inoculum for the sensitivity test. 500 μl fungicide-amended DOB medium (3.4 g/l YNB (Becton Dickinson), 10 g/l Ammoniumsulfat, 40 g/l Glucose, adjusted to pH 7) are added to each well of 24-well tissue culture plates. Each well is then inoculated with a mycelial plug, with the myce-lium surface up. Two replicate wells are used for each isolate and fungicide concentration. Growth is assed after 7 days incubation at 18° C. in the dark by estimating % growth in the well. IC50-values (concentration of test compound resulting in 50% inhibition of fungal growth) were calculated from the resulting dose-response for each compound and strain.

[2] = tested on: Botrytis cinerea mutant V195F; assay: Activity against Botrytis cinerea in the microtiter test, mutant V195F; settings: for IC50: Botrytis cinerea, MUTANTV195F, 168 h, read-out: Absolute IC50, V195F, Botrytis cinerea mutant V195F
Source text: (§1) The active substances were formulated separately as a stock solution in dimethyl sulfoxide (DMSO) at a concentration of 10 000 ppm.
(§2) Spontaneous mutants were selected by plating out B. cinerea spores (in the range of 10^7-10^8) on DOB agar plates (3.4 g/l YNB (Becton Dickinson), 10 g/l Ammoniumsulfat, 40 g/l Glucose, 20 g/l Agar), amended with different lethal concentrations of active ingredient. After 7-14 days growing colonies were transferred to DOB agar plates, amended with the same lethal concentrations of active ingredient and then further propagated on Oatmeal agar medium (50 g/l Oatmeal agar (Sigma), 15 g/l Agar (Difco) for sensitivity testing.
(§3) Fungal strains used: • a) Botrytis cinerea (sensitive, wild-type) • b) Various mutants of Botrytis cinerea
(§4) The spores of Botrytis cinerea were harvested with a cotton swab from an Oatmeal agar plate (50 g/l Oatmealagar (Sigma, Art.O-3506), 15 g/l agar, (Difco) and this is dipped in 3 ml of double concentrated DOB-medium (3.4 g/l YNB (Becton Dickinson), 10 g/l Ammoniumsulfat, 40 g/l Glucose, adjusted to pH 7) and the spore suspension is adjusted to a spore density of 3.2×10^4 spores/ml. The compound solutions were diluted from stock solution in (dimethylsulfoxide) DMSO in several steps with sterile deionized water before use. High test concentrations were 50 mg/L (ppm) or 31 mg/L (ppm). Compound solutions were transferred into empty microplates and filled up with an equal amount of spore suspension.
(§5) The antifungal activity was determined by measuring the turbidity of a culture in 96-well microplates in the presence of test compounds after 7 days incubation at 620 nm. A blank value for each concentration (growth media+compound, without spores) are subtracted from the spore suspension. The relative antifungal activity was calculated by comparing the effect of the test compounds with the effect of a DMSO control The results are shown in Table IV (for compounds of general formula I.A), VI (for compounds of general formula I.B), and VIII (for compounds of general formula I.C).
(§6) A compound showing an IC50 (MUT) above the IC50 (WT) and showing an IC50 (MUT) to IC50 (WT) ratio being in a range above 100 is considered unsuitable (“I”) as DHODH inhibitor.
(§7) The absolute IC50-values (concentration of test compound resulting in 50% inhibition of fungal growth) were calculated from the resulting dose-response for each compound and strain.

[3] = tested on: Botrytis cinerea mutant G111V; assay: Activity against Botrytis cinerea in the microtiter test, mutant G111V; settings: for IC50: Botrytis cinerea, MUTANTG111V, 168 h, read-out: Absolute IC50, G111V, Botrytis cinerea mutant G111V
Source text: as §1, §2, §3, §4, §5, §6, §7

[4] = tested on: Botrytis cinerea mutant G111E; assay: Activity against Botrytis cinerea in the microtiter test, mutant G111E; settings: for IC50: Botrytis cinerea, MUTANTG111E, 168 h, read-out: Absolute IC50, G111E, Botrytis cinerea mutant G111E
Source text: as §1, §2, §3, §4, §5, §6, §7

[5] = tested on: Botrytis cinerea (sensitive, wild-type); assay: Activity against Botrytis cinerea in the microtiter test, wild type; settings: turbidity at 620 nm after 7 days; for IC50: 168 h, read-out: Absolute IC50, wild type
Procedure: as §1, §3, §4, §5, §7

[6] = tested on: Botrytis cinerea mutant H108P; assay: Activity against Botrytis cinerea in the microtiter test, mutant H108P; settings: for IC50: Botrytis cinerea, MUTANTH108P, 168 h, read-out: Absolute IC50, H108P, Botrytis cinerea mutant H108P
Source text: as §1, §2, §3, §4, §5, §6, §7

[7] = tested on: Botrytis cinerea mutant Y208H; assay: Activity against Botrytis cinerea in the microtiter test, mutant Y208H; settings: for IC50: Botrytis cinerea, MUTANTY208H, 168 h, read-out: Absolute IC50, Y208H, Botrytis cinerea mutant Y208H
Source text: as §1, §2, §3, §4, §5, §6, §7

[8] = turbidity at 620 nm after 7 days

Question: Which IC50 [1] does the source give for `CN1c2c(F)cccc2C(c2cnc3c(F)cccc3c2)=NC1(C)C` here?
Answer: 0.03 µg/mL (≈ 0.0889 µM)

Question: With “4-[6-(difluoromethyl)-5-methyl-3-pyridyl]-8-fluoro-2,2-dimethyl-1H-quinazoline [compound 44]” as the compound, how does the “Absolute IC50, V195F” value ([2]; Botrytis cinerea mutant V195F, turbidity at 620 nm after 7 days) read?
Answer: 0.03 ppm

Question: What about the “Absolute IC50, G111V” value ([3]; Botrytis cinerea mutant G111V, turbidity at 620 nm after 7 days) of the same compound?
Answer: 0.73 ppm

Question: What about the “Absolute IC50, G111E” value ([4]; Botrytis cinerea mutant G111E, turbidity at 620 nm after 7 days) of the same compound?
Answer: 0.08 ppm

Question: And the “Absolute IC50, wild type” value [5]?
Answer: 0.01 ppm

Question: And the “Absolute IC50, H108P” value ([6]; Botrytis cinerea mutant H108P, turbidity at 620 nm after 7 days)?
Answer: 0.50 ppm

Question: What about the “Absolute IC50, Y208H” value ([7]; Botrytis cinerea mutant Y208H, turbidity at 620 nm after 7 days) of the same compound?
Answer: 1.64 ppm

Question: With `Cc1cc(C2=NC3(CCC(C)(C)C3)Oc3ccccc32)cnc1C` (stereo not shown) [Ex 4] as the compound, how does the IC50 [1] read?
Answer: 8.45 µg/mL (≈ 26.4 µM)

Question: Which IC50 [1] does the source give for `Cc1cc(C2=NC(C)(C)Oc3ccccc32)cnc1C` [Ex 6] here?
Answer: 0.08 µg/mL (≈ 0.3 µM)

Question: How did the IC50 [1] turn out when `CCC1(CC)N=C(c2cnc(C)c(C)c2)c2ccccc2O1` [Ex 7] was run?
Answer: 0.23 µg/mL (≈ 0.781 µM)

Question: With `Cc1cc(C2=NC3(CCC3)Oc3c2cccc3C(C)(C)C)cnc1C` [Ex-14] as the compound, how does the “Relative antifungal activity expressed as IC50, V195F” value (shortened to “Relative antifungal activity … V195F”) ([2]; {}) read?
Answer: AA AA AA AA AA

Question: And the “Relative antifungal activity expressed as IC50, G111V” value (from here on “Relative antifungal activity … G111V”) ([3]; {})?
Answer: AA AA AA AA AA

Question: What about the “Relative antifungal activity expressed as IC50, G111E” value (“Relative antifungal activity … G111E” for short) ([4]; {}) of the same compound?
Answer: AA AA AA AA AA

Question: What about the “Relative antifungal activity expressed as IC50, Y208H” value ([7]; {}) of the same compound?
Answer: AA AA AA AA AA

Question: How did the “Relative antifungal activity … V195F” value ([2]; {}) turn out when `Cc1cc(C2=NC(C)(C)Oc3c2cccc3C(C)(C)C)cnc1C` [Ex-15] was run?
Answer: AA AA AA

Question: What about the “Relative antifungal activity … G111V” value ([3]; {}) of the same compound?
Answer: AA AA AA

Question: `Cc1cc(C2=NC(C(C)(C)C)Oc3ccccc32)cnc1C` (stereo not shown) [Ex-18] was tested. Which “Relative antifungal activity … V195F” value ([2]; {}) did it give?
Answer: AA AA AA AA

Question: What about the “Relative antifungal activity … G111V” value ([3]; {}) of the same compound?
Answer: AA AA AA AA

Question: And the “Relative antifungal activity … G111E” value ([4]; {})?
Answer: AA AA AA AA

Question: How did the IC50 [2, 8] turn out when `Cc1cc(C2=NC3(CCCC3)Oc3ccccc32)cnc1C(F)F` [Ex-24] was run?
Answer: 0.69 µg/mL (≈ 2.1 µM)

Question: And the IC50 [3, 8]?
Answer: 1.31 µg/mL (≈ 3.99 µM)

Question: And the IC50 [4, 8]?
Answer: 15.3 µg/mL (≈ 46.6 µM)

Question: What about the IC50 [5] of the same compound?
Answer: 0.35 µg/mL (≈ 1.07 µM)

Question: What about the IC50 [6, 8] of the same compound?
Answer: 0.98 µg/mL (≈ 2.98 µM)

Question: Which results are given for `Cc1cc(C2=NC3(CCC3)Oc3ccccc32)cnc1C(F)F` [Ex-25, 4-[6-(difluoromethyl)-5-methyl-3-pyridyl]spiro[1,3-benzoxazine-2,1′-cyclobutane]]?
Answer: IC50 [2, 8]: 0.08 µg/mL (≈ 0.255 µM); IC50 [3, 8]: 0.03 µg/mL (≈ 0.0954 µM); IC50 [5]: 0.05 µg/mL (≈ 0.159 µM); IC50 [6, 8]: 0.02 µg/mL (≈ 0.0636 µM); IC50 [7, 8]: 0.28 µg/mL (≈ 0.891 µM)

Question: `Cc1cc(C2=NC3(COC3)Oc3ccccc32)cnc1C` [Ex-26] was tested. Which “Relative antifungal activity … V195F” value ([2]; {}) did it give?
Answer: AA AA AA AA

Question: What about the “Relative antifungal activity … G111V” value ([3]; {}) of the same compound?
Answer: AA AA AA AA

Question: And the “Relative antifungal activity … G111E” value ([4]; {})?
Answer: AA AA AA AA

Question: What does the source list for `Cc1cc(C2=NC3(CCC3)Oc3c(F)cccc32)cnc1C` [Ex-29]?
Answer: IC50 [2, 8]: 0.02 µg/mL (≈ 0.0675 µM); IC50 [3, 8]: 0.04 µg/mL (≈ 0.135 µM); IC50 [4, 8]: 2.34 µg/mL (≈ 7.9 µM); IC50 ([5]; Botrytis cinerea): 0.02 µg/mL (≈ 0.0675 µM); IC50 [6, 8]: 0.02 µg/mL (≈ 0.0675 µM); IC50 [7, 8]: 0.93 µg/mL (≈ 3.14 µM)

Question: What does the source list for `Cc1cc(C2=NC3(CCC3)Oc3ccccc32)cnc1C` [Ex-32]?
Answer: Absolute IC50, V195F ([2]; {}): 0.13 ppm; Absolute IC50, G111V ([3]; {}): 2.85 ppm; Absolute IC50, G111E ([4]; {}): 2.34 ppm; IC50 ([5]; Botrytis cinerea): 0.12 µg/mL (≈ 0.431 µM); Absolute IC50, H108P ([6]; {}): 0.07 ppm; IC50 [7, 8]: 1.23 µg/mL (≈ 4.42 µM)

Question: Which results are given for `COc1ccc2c(c1)OC1(CCC1)N=C2c1cnc(C(F)F)c(C)c1` [Ex-37]?
Answer: IC50 [2, 8]: 0.11 µg/mL (≈ 0.319 µM); IC50 [3, 8]: 0.09 µg/mL (≈ 0.261 µM); IC50 [4, 8]: 0.54 µg/mL (≈ 1.57 µM); IC50 [5]: 0.03 µg/mL (≈ 0.0871 µM); IC50 [6, 8]: 0.06 µg/mL (≈ 0.174 µM)

Question: Which results are given for `Cc1cc(C2=NC(C)(C)Nc3ccccc32)cnc1C` [compound 39]?
Answer: Relative antifungal activity expressed as IC50, V195F ([2]; {}): AA AA AA AA; Relative antifungal activity expressed as IC50, G111V ([3]; {}): AA AA AA AA; Relative antifungal activity expressed as IC50, G111E ([4]; {}): AA AA AA AA

Question: Which results are given for `Cc1ccc(S(=O)(=O)N2c3ccccc3C(c3cnc(C)c(C)c3)=NC2(C)C)cc1` [compound 42]?
Answer: Relative antifungal activity expressed as IC50, V195F ([2]; {}): AA AA AA AA; Relative antifungal activity expressed as IC50, G111V ([3]; {}): AA AA AA AA; Relative antifungal activity expressed as IC50, G111E ([4]; {}): AA AA AA AA

Question: Which IC50 [2, 8] does the source give for `CCN1c2c(F)cccc2C(c2cnc(C(F)F)c(C)c2)=NC1(C)C` [compound 45] here?
Answer: 0.02 µg/mL (≈ 0.0576 µM)

Question: What about the IC50 [3, 8] of the same compound?
Answer: 0.96 µg/mL (≈ 2.76 µM)

Question: What about the IC50 [4, 8] of the same compound?
Answer: 0.57 µg/mL (≈ 1.64 µM)

Question: What about the IC50 [5] of the same compound?
Answer: 0.01 µg/mL (≈ 0.0288 µM)

Question: And the IC50 [6, 8]?
Answer: 0.4 µg/mL (≈ 1.15 µM)

Question: What about the IC50 [7, 8] of the same compound?
Answer: 0.27 µg/mL (≈ 0.777 µM)

— patent US20260150841A1, “PYRIDINE COMPOUNDS FOR COMBATTING DIHYDROOROTATE-DEHYDROGENASE INHIBITOR-RESISTANT PHYTOPATHOGENIC FUNGI” (priority 2022, published 2026)
